Key:
[1] = target: T1, IL-1β protease (Homo sapiens, UniProt P29466); experiment: In vitro IL-1β protease inhibition (HPLC, TRITC-AYVHDAPVRS-NH2 substrate); format: biochemical; details: 15 min preincubation, 60 min at 37° C., 67 μM substrate
T1 sequence (P29466 120-297 limits assumed): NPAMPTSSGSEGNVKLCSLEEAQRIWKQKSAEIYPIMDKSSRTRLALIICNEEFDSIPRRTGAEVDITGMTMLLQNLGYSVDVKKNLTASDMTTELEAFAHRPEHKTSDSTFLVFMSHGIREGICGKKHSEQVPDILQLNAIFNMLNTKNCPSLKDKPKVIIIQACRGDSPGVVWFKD
Procedure: Compounds of the present invention were tested for IL-1β protease inhibition activity according to the following protocols:
Partially purified IL-1β protease is stored at -80° C., thawed on ice, and preincubated for 10 minutes at 37° C. with 2.5 mM dithiothreitol in a buffer solution containing 10 mM Tris-HCl (pH 8.0) and 25% (v/w) glycerol. Inhibitors are prepared as stock solutions in dimethyl sulfoxide (DMSO). The protease is preincubated with inhibitor in a volume of 20 μL in a 1.5 mL polypropylene microcentrifuge tube for 15 minutes at 37° C. The volume of compound added to the assay is adjusted to yield a DMSO concentration in the preincubation of <15% (v/v). The enzyme assay is then initiated by the addition of substrate (TRITC-AYVHDAPVRS-NH2) (SEQ I.D. No. 1) [drawing 5] to yield a final concentration of 67 μM in a final volume of 30 μL. The reaction are carried out for 60 minutes at 37° C. in the dark and are terminated by the addition of […] (TFA). Following the addition of 115 μL of 0.1 % TFA, the samples are analyzed by high pressure liquid chromatography using a reverse phase (C18) column and elution with an acetonitrile/water/TFA gradient. Substrate and product are monitored by their absorbance at 550 nm and elute at 4.2 and 5.2 minutes, respectively.

[2] = system: release of mature IL-1β, human monocytes; experiment: "In vivo" human monocyte pulse chase assay, inhibition of release of mature IL-1β; format: cell-based; details: fixed S. aureus stimulation, 2-3 donors
Procedure: In vivo inhibition (IC50) was determined as follows:
Human monocytes were isolated from heparinized leukopheresis units obtained through Biological Specialty Corporation (Lansdale, Pa.). Monocytes were purified by Ficoll-Hupaque (Pharmacia Fine Chemicals, Piscataway, N.J.) gradient centrifugation and more than 95% pure monocyte populations obtained by centrifugal elutriation. The assay was performed on duplicate samples of freshly isolated human monocytes, cultured in suspension at 37° C. and rotated gently in conical bottom polypropylene tubes (Sardstedt Inc., Princeton, N.J.). Human monocytes at a concentration of 5×10^6 cells/mL were resuspended in 1 mL of RPMI 1640 (a common tissue buffer from M.A. Bioproducts, Walkersville, Md.) containing 1% fetal calf serum (FCS) (HyClone, Logan, Utah) and 50 μg/mL gentamycin (Gibco, Grand Island, N.Y.). The cells were treated either with a compound of the invention (i.e. test compound) or with a non-inhibitor (control compound, typically 0.03% DMSO) for 15 minutes and then activated with 0.01% fixed Staphylococcus aureus (The Enzyme Center, Malden, Mass.) for 1 hour. […]
In the monocyte pulse chase assay, each test parameter was run in duplicate. […] When test compounds were evaluated, the percent inhibition of release of mature IL-1β was calculated as follows: […]

[3] = system: colon; details: ulcerative colitis model; cited from earlier work
[4] = system: rats; details: PG-APS model of arthritis in rats; cited from earlier work
[5] = system: Patients with Rheumatoid Arthritis; details: small open-label human trial; cited from earlier work
[6] = system: chronic myelogenous leukemia cells; details: cells removed from leukemia patients (CML); cited from earlier work
[7] = system: Acute Myelogenous Leukemia Blast; details: AML; cited from earlier work

Compound | IC50 [1] | IC50 [2] | tissue necrosis and number of inflammatory cells in the colon [3] | joint swelling [4] | efficacy in Rheumatoid Arthritis trial [5] | inhibition of colony growth [6] | inhibition of Acute Myelogenous Leukemia Blast Proliferation [7]
C=CCN(Cc1ccc(Cl)cc1Cl)C(=O)CCl [Example 1] | ≤ 1 µM | < 10 µM | – | – | – | – | –
IL-1 ra: naturally occurring IL-1β receptor antagonist | – | – | reduced tissue necrosis and the number of inflammatory cells in the colon | supresses joint swelling | shows efficacy | inhibit colony growth | Inhibition of Acute Myelogenous Leukemia Blast Proliferation
